# Laboratory results from BindingDB's records for doi:10.1021/jm050520a (Schering-Plough Research Institute, 2006).
# Numbered stars: 1 amine (or outer) side, 2 acyl side, 3 side chain; on linkers, the order of the positions; unused ones are H or OH. Square brackets hold non-standard residues; d marks the D form. Peptide text beside a SMILES is read from it. * marks the point of attachment. X1 = CCCC(N[*:1])C(=O)C(=O)[*:2]; Tic = O=C(O)[C@@H]1Cc2ccccc2CN1; Chg = N[C@H](C(=O)O)C1CCCCC1; Phg = N[C@H](C(=O)O)c1ccccc1; Boc = CC(C)(C)OC(=O)*
# Target: Genome polyprotein (Hepatitis C virus genotype 1a (isolate H77), UniProt P27958)
# Test: Continuous Spectrophotometric Assay
# Details: pH 6.5; 30 °C
# Experimental: Proteolytic cleavage of the ester linkage between the Nva (L-norvaline) and the chromophore (PAP) was monitored for change in absorbance at 370 nm. Initial velocities were determined using linear regression and kinetic constants were obtained by fitting the data to the Michaelis-Menten equation.
# Sequence of Genome polyprotein (P27958 1027-1657 limits assumed): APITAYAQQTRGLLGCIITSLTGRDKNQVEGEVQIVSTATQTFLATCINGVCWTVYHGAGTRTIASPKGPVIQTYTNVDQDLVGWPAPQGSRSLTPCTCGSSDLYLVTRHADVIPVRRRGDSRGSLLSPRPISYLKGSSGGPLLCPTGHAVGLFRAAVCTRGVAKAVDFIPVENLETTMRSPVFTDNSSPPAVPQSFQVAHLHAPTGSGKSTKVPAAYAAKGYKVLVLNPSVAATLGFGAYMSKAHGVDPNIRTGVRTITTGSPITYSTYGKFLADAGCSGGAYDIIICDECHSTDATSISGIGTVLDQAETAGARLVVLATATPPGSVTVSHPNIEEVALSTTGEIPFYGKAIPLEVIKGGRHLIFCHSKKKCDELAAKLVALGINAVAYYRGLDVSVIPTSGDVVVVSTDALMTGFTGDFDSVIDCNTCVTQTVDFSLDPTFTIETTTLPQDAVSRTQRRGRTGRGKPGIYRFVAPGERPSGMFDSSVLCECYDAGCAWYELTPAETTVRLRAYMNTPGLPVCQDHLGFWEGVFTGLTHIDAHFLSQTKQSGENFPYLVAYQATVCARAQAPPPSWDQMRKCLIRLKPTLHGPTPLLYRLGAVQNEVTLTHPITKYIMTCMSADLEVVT
structure (smiles),measurement,value
"CCCC(NC(=O)[C@@H]1Cc2ccccc2CN1C(=O)[C@@H](NC(=O)OC(C)(C)C)C1CCCCC1)C(=O)C(=O)NCC(=O)N[C@H](C(=O)N(C)C)c1ccccc1 (stereo partly drawn) [tert-butyl N-[(1S)-1-cyclohexyl-2-[(3S)-3-({1-[({[(S)-(dimethylcarbamoyl)(phenyl)methyl]carbamoyl}methyl)carbamoyl]-1-oxopentan-2-yl}carbamoyl)-1,2,3,4-tetrahydroisoquinolin-2-yl]-2-oxoethyl]carbamate] (Boc-[Chg][Tic][X1]G[Phg]-NMe2)",Ki,1200 nM
